This assay deals with T1, N-terminal Xaa-Pro-Lys N-methyltransferase 1 (Homo sapiens, UniProt Q9BV86).
T1 sequence (Q9BV86 whole entry): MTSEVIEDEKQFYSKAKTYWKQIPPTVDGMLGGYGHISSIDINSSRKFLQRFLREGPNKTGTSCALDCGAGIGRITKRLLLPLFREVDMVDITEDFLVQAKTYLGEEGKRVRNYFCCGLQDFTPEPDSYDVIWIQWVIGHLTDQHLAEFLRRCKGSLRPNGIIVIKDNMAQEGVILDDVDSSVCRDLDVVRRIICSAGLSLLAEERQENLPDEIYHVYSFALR
Briefly: Not found.

Structures are written as SMILES.

Broadly, the IC50 is the concentration at which inhibition is half-maximal. As to `N=C(N)NCCC[C@H](NC(=O)[C@H](CCCCN)N1CCC[C@H]1C(N)=O)C(=O)N[C@@H](Cc1c[nH]c2ccccc12)C(N)=O` [US12479887, Compound 43], the IC50 came to 95 nM.

The record behind these values is BindingDB's records for patent US12479887 (Purdue Research Foundation, 2025).
